Measurements taken from the NIST ThermoML archive (doi:10.1016/j.fluid.2013.12.020).
± gives the expanded uncertainty stated by the source.

Conditions: 293.15 K; 101.33 kPa; Liquid; Falling or rolling sphere viscometry

Row | SMILES | viscosity [mPa·s]
1 | CCCCn1cc[n+](C)c1.N#CN=C=[N-] [1-butyl-3-methylimidazolium dicyanamide] | 48.53 ± 2.1
2 | NCCO [2-aminoethan-1-ol] | 23.76 ± 0.98
3 | Cn1cc[n+](CCO)c1.N#C[N-]C#N [3-(2-hydroxyethyl)-1-methyl-1H-imidazol-3-ium dicyanoazanide] | 121.5 ± 6.2

Same assay, conditions: 293.15 K; 101.33 kPa; Liquid; Vibrating tube method

Row | SMILES | mass density [kg/m3]
4 | CCCCn1cc[n+](C)c1.N#CN=C=[N-] [1-butyl-3-methylimidazolium dicyanamide] | 1065.4 ± 2.2
5 | NCCO [2-aminoethan-1-ol] | 1015.96 ± 0.3
6 | Cn1cc[n+](CCO)c1.N#C[N-]C#N [3-(2-hydroxyethyl)-1-methyl-1H-imidazol-3-ium dicyanoazanide] | 1192.85 ± 2.7

Same assay, conditions: 303.15 K; 101.33 kPa; Liquid; Falling or rolling sphere viscometry

Row | SMILES | viscosity [mPa·s]
7 | CCCCn1cc[n+](C)c1.N#CN=C=[N-] [1-butyl-3-methylimidazolium dicyanamide] | 31.73 ± 1.4
8 | NCCO [2-aminoethan-1-ol] | 14.85 ± 0.61
9 | Cn1cc[n+](CCO)c1.N#C[N-]C#N [3-(2-hydroxyethyl)-1-methyl-1H-imidazol-3-ium dicyanoazanide] | 68.67 ± 3

Same assay, conditions: 303.15 K; 101.33 kPa; Liquid; Vibrating tube method

Row | SMILES | mass density [kg/m3]
10 | CCCCn1cc[n+](C)c1.N#CN=C=[N-] [1-butyl-3-methylimidazolium dicyanamide] | 1059.09 ± 2.1
11 | NCCO [2-aminoethan-1-ol] | 1008.05 ± 0.29
12 | Cn1cc[n+](CCO)c1.N#C[N-]C#N [3-(2-hydroxyethyl)-1-methyl-1H-imidazol-3-ium dicyanoazanide] | 1186.37 ± 2.7

Same assay, conditions: 313.15 K; 101.33 kPa; Liquid; Falling or rolling sphere viscometry

Row | SMILES | viscosity [mPa·s]
13 | CCCCn1cc[n+](C)c1.N#CN=C=[N-] [1-butyl-3-methylimidazolium dicyanamide] | 22.09 ± 0.96
14 | NCCO [2-aminoethan-1-ol] | 9.943 ± 0.41
15 | Cn1cc[n+](CCO)c1.N#C[N-]C#N [3-(2-hydroxyethyl)-1-methyl-1H-imidazol-3-ium dicyanoazanide] | 42.93 ± 1.9

Same assay, conditions: 313.15 K; 101.33 kPa; Liquid; Vibrating tube method

Row | SMILES | mass density [kg/m3]
16 | CCCCn1cc[n+](C)c1.N#CN=C=[N-] [1-butyl-3-methylimidazolium dicyanamide] | 1052.83 ± 2.1
17 | NCCO [2-aminoethan-1-ol] | 1000.09 ± 0.29
18 | Cn1cc[n+](CCO)c1.N#C[N-]C#N [3-(2-hydroxyethyl)-1-methyl-1H-imidazol-3-ium dicyanoazanide] | 1179.92 ± 2.7

Same assay, conditions: 323.15 K; 101.33 kPa; Liquid; Falling or rolling sphere viscometry

Row | SMILES | viscosity [mPa·s]
19 | CCCCn1cc[n+](C)c1.N#CN=C=[N-] [1-butyl-3-methylimidazolium dicyanamide] | 16.17 ± 0.7
20 | NCCO [2-aminoethan-1-ol] | 6.984 ± 0.29
21 | Cn1cc[n+](CCO)c1.N#C[N-]C#N [3-(2-hydroxyethyl)-1-methyl-1H-imidazol-3-ium dicyanoazanide] | 28.96 ± 1.3

Same assay, conditions: 323.15 K; 101.33 kPa; Liquid; Vibrating tube method

Row | SMILES | mass density [kg/m3]
22 | CCCCn1cc[n+](C)c1.N#CN=C=[N-] [1-butyl-3-methylimidazolium dicyanamide] | 1046.62 ± 2.1
23 | NCCO [2-aminoethan-1-ol] | 992.07 ± 0.29
24 | Cn1cc[n+](CCO)c1.N#C[N-]C#N [3-(2-hydroxyethyl)-1-methyl-1H-imidazol-3-ium dicyanoazanide] | 1173.52 ± 2.6

Same assay, conditions: 333.15 K; 101.33 kPa; Liquid; Falling or rolling sphere viscometry

Row | SMILES | viscosity [mPa·s]
25 | CCCCn1cc[n+](C)c1.N#CN=C=[N-] [1-butyl-3-methylimidazolium dicyanamide] | 12.35 ± 0.54
26 | NCCO [2-aminoethan-1-ol] | 5.108 ± 0.21
27 | Cn1cc[n+](CCO)c1.N#C[N-]C#N [3-(2-hydroxyethyl)-1-methyl-1H-imidazol-3-ium dicyanoazanide] | 20.67 ± 0.9

Same assay, conditions: 333.15 K; 101.33 kPa; Liquid; Vibrating tube method

Row | SMILES | mass density [kg/m3]
28 | CCCCn1cc[n+](C)c1.N#CN=C=[N-] [1-butyl-3-methylimidazolium dicyanamide] | 1040.48 ± 2
29 | NCCO [2-aminoethan-1-ol] | 983.98 ± 0.29
30 | Cn1cc[n+](CCO)c1.N#C[N-]C#N [3-(2-hydroxyethyl)-1-methyl-1H-imidazol-3-ium dicyanoazanide] | 1167.18 ± 2.6
